We go through 28 compounds from patent publication US20140005230A1 (priority 2011, published 2014).

Series [1] in a line: LogP by HPLC on reversed phase columns (EEC directive 79/831 Annex V.A8). In kind it is physicochemical. As to conditions: pH 2.7, 0.1% formic acid in water / acetonitrile gradient. On the procedure:
Measurement of Iog P values was performed according EEC directive 79/831 Annex V.A8 by HPLC (High Performance Liquid Chromatography) on reversed phase columns with the following method:
Measurement of LC-MS was done at pH 2.7 with 0.1% formic acid in water and with acetonitrile (contains 0.1% formic acid) as eluent with a linear gradient from 10% acetonitrle to 95% acetonitrile.
Calibration was done with not branched alkan2-ones (with 3 to 16 carbon atoms) with known log P-values (measurement of log P values using retention times with linear interpolation between successive alkanones). lambda-maX-values were determined using UV-spectra from 200 nm to 400 nm and the peak values of the chromatographic signals.

For a further series, the system named is Phytophthora infestans. In kind it is in vivo. The conditions noted are these: tomatoes, preventive spray, 10 ppm of active ingredient, evaluated 3 days after inoculation.
For the next series, the system named is Plasmopara viticola. In words: Plasmopara test (grapevines) / preventive. Type of series: in vivo. As to conditions: preventive spray, 100 ppm of active ingredient, evaluated 6 days after inoculation. On the procedure:
Plasmopara Test (Grapevines)/Preventive
To produce a suitable preparation of active compound, 1 part by weight of active compound is mixed with the stated amounts of solvent and emulsifier, and the concentrate is diluted with water to the desired concentration.
To test for preventive activity, young plants are sprayed with the preparation of active compound at the stated rate of application. After the spray coating has dried on, the plants are inoculated with an aqueous spore suspension of Plasmopara viticola and then remain for 1 day in an incubation cabinet at approximately 20° C. and a relative atmospheric humidity of 100%. The plant is subsequently placed for 4 days in a greenhouse at approximately 21° C. and a relative atmospheric humidity of approximately 90%. The plants are then misted and placed for 1 day in an incubation cabinet.
The test is evaluated 6 days after the inoculation. 0% means an efficacy which corresponds to that of the untreated control, while an efficacy of 100% means that no disease is observed.

In a further series the test system is Pythium ultimum. In words: Pythium test (cotton) / seed treatment. Type of series: in vivo. As to conditions: 50 g/dt seed of active ingredient, greenhouse 7 days, emerged seedlings. The protocol:
Pythium Test (cotton)/Seed Treatment
The test is performed under greenhouse conditions.
Cotton seeds, treated with the active compound or compound combinations, solved in N-methyl-2-pyrrolidon and diluted with water to the desired dosages, were sown in 6*6 cm pots containing 4 cm of a 1:1 mix of steamed field soil and sand.
Perlite was incubated with mycelium fragments of Pythium ultimum. 1 ml of infected perlite was scattered between the treated cotton seeds. Seeds were then covered by light expanded clay aggregate. Pots were incubated in the greenhouse 7 days at 20° C. and 80% relative humidity.
Assessment consisted of counting of emerged seedlings. 0% means an efficacy which corresponds to that of the control, while an efficacy of 100% means that all seedlings have emerged.

Broadly, the LogP is a log measure of how a compound divides between an organic and an aqueous phase. A high value points to higher lipophilicity. Regarding `Cn1nnnc1C(=NOCc1csc(NC(=O)C=C(c2ccccc2)C2CC2)n1)c1ccccc1` [Example 30], the LogP in series [1] stood at 2.36. Moreover, the Eff. % with Phytophthora infestans was 85%.
Take `CC(=CC1CCCC1)C(=O)Nc1nc(CON=C(c2ccccc2)n2nnnc2C)cs1` [Example 10]: the LogP in series [1] is reported as 4.16. This compound registered an Eff. % in the series with Phytophthora infestans of 80%.
Turning to `CC(=CC(=O)Nc1nc(CON=C(c2ccccc2)c2nnnn2C)cs1)C1CCCCC1` [Example 21], the log partition coefficient (LogP) in series [1] worked out at 4.44.
As to `CC(=CC1CC1)C(=O)Nc1nc(CON=C(c2ccccc2)c2nnnn2C)cs1` [Example 27], the LogP in series [1] is reported as 3.44. For the same compound, the Eff. % with Phytophthora infestans stood at 95%.
In turn, `Cc1nnnn1C(=NOCc1csc(NC(=O)C=C(C2CC2)C2CC2)n1)c1ccccc1` [Example 15] displayed a LogP in series [1] of 3.83.
The compound `Cc1nnnn1C(=NOCc1cccc(NC(=O)C=C(c2ccccc2)C2CC2)n1)c1ccccc1` [Example 33] displayed a lipophilicity (LogP) in series [1] of 4.41. The Eff. % in the series with Phytophthora infestans was determined as 95%.
On to `CC(=CC(=O)Nc1nc(CON=C(c2ccccc2)n2nnnc2C)cs1)C1CC1` [Example 7], for which the LogP in series [1] is recorded as 3.46.
Same read-out and setting: the same measure for `CC(=CC(=O)Nc1nc(CON=C(c2ccccc2)c2nnnn2C)cs1)C1CC1` [Example 18]: 3.41.
`Cn1nnnc1C(=NOCc1csc(NC(=O)C=CC2CC2)n1)c1ccccc1` [Example 24] registered a LogP in series [1] of 3.04. The Eff. % is given as 90% with Plasmopara viticola and 95% in the series on Phytophthora infestans.
In series [1], `CC(=CC(=O)Nc1cccc(CON=C(c2ccccc2)c2nnnn2C)n1)C1CC1` [Example 3] came in with a LogP of 3.46. The Eff. % with Phytophthora infestans came to 95%.
Regarding `Cc1nnnn1C(=NOCc1csc(NC(=O)C=CC2CCCCC2)n1)c1ccccc1` [Example 16], the lipophilicity (LogP) in series [1] worked out at 2.53. The same compound gave an Eff. % with Phytophthora infestans of 90%.
Regarding `CC(=CC(=O)Nc1cccc(CON=C(c2ccccc2)n2nnnc2C)n1)C1CC1` (mixture of isomers) [Example 31], the LogP in series [1] is reported as 3.59. Further, in the series on Phytophthora infestans, the Eff. % was 93%.
The term chromatographic logP denotes lipophilicity estimated from chromatographic retention. In turn, `CC(=CC(=O)Nc1cccc(CON=C(c2ccccc2)c2nnnn2C)n1)C1CC1` [Example 1, 3-cyclopropyl-N-{6-[({[(1-methyl-1H-tetrazol-5-yl)(phenyl)methylene]amino}oxy)methyl]pyridin-2-yl}but-2-enamide] returned a chromatographic logP in series [1] (reversed phase HPLC column) of 3.48. Moreover, the Eff. % with Pythium ultimum is recorded as 100%; with Plasmopara viticola, 97%; with Phytophthora infestans, 95%.
In turn, `Cn1nnnc1C(=NOCc1cccc(NC(=O)C=CC2CCCCC2)n1)c1ccccc1` [Example 6] returned a LogP in series [1] of 4.36. Further, the Eff. % in the series with Plasmopara viticola turned out to be 93%; in the series with Phytophthora infestans it was 95%.
`Cc1nnnn1C(=NOCc1cccc(NC(=O)C=CC2CCCCC2)n1)c1ccccc1` (mixture of isomers) [Example 32]: the lipophilicity (LogP) in series [1] is 4.46. Besides, the Eff. % with Phytophthora infestans is given as 95%.
In series [1], `CC(=CC(=O)Nc1cccc(CON=C(c2ccccc2)c2nnnn2C)n1)C1CC1` [Example 2] had a LogP of 3.29. For the same compound, the Eff. % in the series with Plasmopara viticola turned out to be 84%; in the series on Phytophthora infestans it was 100%.
In series [1], `CC(C)=CC(=O)Nc1nc(CON=C(c2ccccc2)n2nnnc2C)cs1` [Example 12] gave a LogP of 3.15. The Eff. % in the series with Phytophthora infestans came to 80%.
Consider `Cc1nnnn1C(=NOCc1csc(NC(=O)C=C(c2ccccc2)C2CC2)n1)c1ccccc1` [Example 17], for which the lipophilicity (LogP) in series [1] turned out to be 2.38.
Regarding `Cc1nnnn1C(=NOCc1csc(NC(=O)C=C(c2ccccc2)C2CC2)n1)c1ccccc1` [Example 9], the log partition coefficient (LogP) in series [1] was 4.26. In addition, the Eff. % with Phytophthora infestans is 85%.
In the case of `CC(C)=CC(=O)Nc1nc(CON=C(c2ccccc2)c2nnnn2C)cs1` [Example 28], in series [1], the LogP stood at 3.08. The Eff. % in the series with Phytophthora infestans is listed as 90%.
In the case of `Cc1nnnn1C(=NOCc1csc(NC(=O)C=CC2CC2)n1)c1ccccc1` [Example 13], the lipophilicity (LogP) in series [1] was 3.09.
As for `CC(=CC1CCCC1)C(=O)Nc1nc(CON=C(c2ccccc2)c2nnnn2C)cs1` [Example 26], the LogP in series [1] was 4.09. For the same compound, the results for the Eff. % with Plasmopara viticola and in the series on Phytophthora infestans were 90% and 95%, respectively.
In the case of `Cn1nnnc1C(=NOCc1csc(NC(=O)C=CC2CCCCC2)n1)c1ccccc1` [Example 29], the LogP in series [1] came out at 2.5. The compound further came in with an Eff. % in the series with Phytophthora infestans of 95%.
Taken in the same sequence, the figures for `CC(=CC1CC1)C(=O)Nc1nc(CON=C(c2ccccc2)n2nnnc2C)cs1` [Example 11] were 3.52 and 95%.
`CC(=CC(=O)Nc1cccc(CON=C(c2ccccc2)c2nnnn2C)n1)C1CCCCC1` [Example 5] gave a log partition coefficient (LogP) in series [1] of 4.82. For the same compound, the Eff. % in the series on Plasmopara viticola was 91%; in the series with Phytophthora infestans it was 90%.
`Cn1nnnc1C(=NOCc1csc(NC(=O)C=C(C2CC2)C2CC2)n1)c1ccccc1` [Example 23] gave a LogP in series [1] of 3.76. Also, in the series on Phytophthora infestans, the Eff. % came to 85%.
Compound `Cn1nnnc1C(=NOCc1csc(NC(=O)C=C(c2ccccc2)C2CC2)n1)c1ccccc1` [Example 22] registered a LogP in series [1] of 4.21. This compound also showed an Eff. % in the series with Phytophthora infestans of 80%.
`CC(=CC(=O)Nc1nc(CON=C(c2ccccc2)c2nnnn2C)cs1)C1CCCCC1` [Example 20]: the lipophilicity (LogP) in series [1] was 4.66. In the series with Phytophthora infestans, the Eff. % was 80%.
